Measured values reported in US20030219712A1, “Addition of glycolysis inhibitor to a pathogen reduction and storage solution” (priority 2002, published 2003).

Columns and labels:
Assay type in all cases: cell-based
[1] = tested on: pathogen reduced platelets; assay: Lactate production by pathogen reduced platelets over five day storage; conditions: 10 mM 2-deoxy-D-glucose; five days in storage; riboflavin, 7 J/cm^2 320 nm light; vs platelets without 2-deoxy-D-glucose (FIG. 1)
Text: (§1) The following figures graph the quality of pathogen reduced platelets over a five day storage period. Platelets were separated from whole blood and collected using a blood collection device such as the COBE Spectra™ or TRIMA® apheresis systems available from Gambro BCT Inc., Lakewood, Colo., USA. However, it should be noted that any device known in the art for separating blood into components may be used to collect platelets without departing from the spirit and scope of the present invention.
(§2) Collected platelets were suspended in a volume of 278 mL of fluid containing […] riboflavin and either with or without a glycolytic inhibitor. 2-deoxy-D-glucose is one example of a glycolytic inhibitor which may be used in the present invention. The platelets were irradiated in a Sengewald bag (available from Sengewald Verpackungen GmbH & Co. KG) (however any bag known in the art may be used) at 7 J/cm^2 with a 320 nm broad band eximer light.

[2] = tested on: pathogen reduced platelets; assay: Glucose consumption of pathogen reduced platelets over time; conditions: 10 mM 2-deoxy-D-glucose; riboflavin, 7 J/cm^2 320 nm light; vs platelets containing no 2-deoxy-D-glucose (FIG. 2)
Text: as §1, §2

[3] = tested on: pathogen treated platelets; assay: GMP-140 expression on the surface of pathogen treated platelets (platelet activation) over five day storage; conditions: solutions containing 2-deoxy-D-glucose, vs solutions without glycolytic inhibitors (FIG. 4)
Text: as §1, §2
FIG. 4 is a graph showing GMP-140 expression on the surface of pathogen treated platelets over a five day storage period. GMP-140 is a marker which appears on the surface of platelets which are activated. When transfused into a recipient, platelets which are activated during storage have a higher percentage of being quickly removed from the recipient's circulatory system than non-activated platelets.

[4] = tested on: pathogen reduced platelets; assay: pH over time of a solution of pathogen reduced platelets; conditions: 10 mM 2-deoxy-D-glucose; five day storage; platelets without it show rapid drop in pH (FIG. 3)
Text: as §1, §2
As shown, 10 mM 2-deoxy-D-glucose appears to maintain the pH of the platelets at approximately pH 7.40. Platelets without 2-deoxy-D-glucose experience a rapid drop in pH. Such results are expected because lactic acid is not produced at high rates if the glycolysis pathway is inhibited, and consequently, the pH of the solution remains at a relatively constant level.

O=CC[C@@H](O)[C@H](O)[C@H](O)CO [2-deoxy-D-glucose]
production of lactic acid [1]: marked decrease
glucose consumption [2]: slower rate
percentage of GMP-140 expression [3]: lower percentage
pH of the platelets maintained during storage [4]: ~7.40
